The values that follow come from the supplement of paper PMC10307832.

Compound in experiment [1]: COc1cc2nc(N3CCCN(C)CC3)nc(NC3CCN(Cc4ccccc4)CC3)c2cc1OC + CC1(C)CCC(c2ccc(Cl)cc2)=C(CN2CCN(c3ccc(C(=O)NS(=O)(=O)c4ccc(N[C@H](CCN5CCOCC5)CSc5ccccc5)c(S(=O)(=O)C(F)(F)F)c4)cc3)CC2)C1 [Navitoclax] (partner 0.5 µM)
The experiment can be described thus: relative viability (nuclei count vs DMSO), 5 days (fraction); higher = more cells survive. The essentials:
(§1)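 Lung cancer cell lines, seeded in 1536-well plates, were treated the following day by pin tool with a single drug or with five library-drug doses (not always all listed) in √10 steps on top of a fixed anchor-drug dose. Cells were fixed and nuclei stained in one step after 5 days, and nuclei were counted. Relative viability is the nuclei count for treated wells divided by that for vehicle wells, reported as medians of duplicate plates.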

Compound in the experiment “AZD6482 + Foretinib”: Cc1cc([C@@H](C)Nc2ccccc2C(=O)O)c2nc(N3CCOCC3)cc(=O)n2c1 [AZD6482] + COc1cc2c(Oc3ccc(NC(=O)C4(C(=O)Nc5ccc(F)cc5)CC4)cc3F)ccnc2cc1OCCCN1CCOCC1 [Foretinib] (partner 0.25 µM)
Described as above. The essentials:
as §1

For the cell line SK-MES-1, the relative viability in experiment [1] (first compound 0.2 µM) was 1.14; in experiment [1] (first compound 0.6325 µM) it was 1.24; in experiment [1] (first compound 2 µM), 1.36; in experiment [1] (first compound 6.325 µM) it was 0.999; with AZD6482 + Foretinib (first compound 0.08 µM), 0.519; in the experiment with AZD6482 + Foretinib (first compound 0.253 µM), 0.783. Also, the relative viability in the experiment with AZD6482 + Foretinib (first compound 0.8 µM) is 0.565; in the experiment with AZD6482 + Foretinib (first compound 2.53 µM), 0.422; with AZD6482 + Foretinib (first compound 8 µM), 0.403.

In the case of HCC-366, the relative viability in experiment [1] (first compound 0.2 µM) amounted to 1.04; in experiment [1] (first compound 0.6325 µM), 1.12; in experiment [1] (first compound 2 µM) it was 1.21; in experiment [1] (first compound 6.325 µM), 1.05; with AZD6482 + Foretinib (first compound 0.08 µM), 0.938; with AZD6482 + Foretinib (first compound 0.253 µM) it was 0.897. The relative viability was found to be 0.936 in the experiment with AZD6482 + Foretinib (first compound 0.8 µM), 0.759 with AZD6482 + Foretinib (first compound 2.53 µM) and 0.447 with AZD6482 + Foretinib (first compound 8 µM).

Regarding 201T, the relative viability in experiment [1] (first compound 0.2 µM) amounted to 1.2; in experiment [1] (first compound 0.6325 µM), 1.2; in experiment [1] (first compound 2 µM), 1.23; in experiment [1] (first compound 6.325 µM) it was 1.15; with AZD6482 + Foretinib (first compound 0.08 µM), 1.07; with AZD6482 + Foretinib (first compound 0.253 µM), 1.01. Also, the relative viability with AZD6482 + Foretinib (first compound 0.8 µM) worked out at 1.11; with AZD6482 + Foretinib (first compound 2.53 µM), 0.734; with AZD6482 + Foretinib (first compound 8 µM), 1.08.

Take HCC-827: the relative viability came out at 1.01 in experiment [1] (first compound 0.2 µM); 1.01 in experiment [1] (first compound 0.6325 µM); 0.988 in experiment [1] (first compound 2 µM); 1.01 in experiment [1] (first compound 6.325 µM); 0.986 with AZD6482 + Foretinib (first compound 0.08 µM); 0.878 in the experiment with AZD6482 + Foretinib (first compound 0.253 µM). Also, the relative viability with AZD6482 + Foretinib (first compound 0.8 µM) was 0.945; with AZD6482 + Foretinib (first compound 2.53 µM), 0.678; in the experiment with AZD6482 + Foretinib (first compound 8 µM), 0.499.

On to NCI-H647, for which the relative viability in experiment [1] (first compound 0.2 µM) was 1.07; in experiment [1] (first compound 0.6325 µM), 1.18; in experiment [1] (first compound 2 µM), 1.32; in experiment [1] (first compound 6.325 µM), 0.964; in the experiment with AZD6482 + Foretinib (first compound 0.08 µM) it was 0.86; with AZD6482 + Foretinib (first compound 0.253 µM), 1.3. Besides, the relative viability amounted to 0.946 with AZD6482 + Foretinib (first compound 0.8 µM), 0.721 with AZD6482 + Foretinib (first compound 2.53 µM) and 0.623 with AZD6482 + Foretinib (first compound 8 µM).

Regarding NCI-H2023, the relative viability in experiment [1] (first compound 0.2 µM) came out at 1.02; in experiment [1] (first compound 0.6325 µM), 1.01; in experiment [1] (first compound 2 µM) it was 1.03; in experiment [1] (first compound 6.325 µM), 0.616; in the experiment with AZD6482 + Foretinib (first compound 0.08 µM), 0.83; in the experiment with AZD6482 + Foretinib (first compound 0.253 µM), 0.757. Besides, the results for the relative viability in the experiment with AZD6482 + Foretinib (first compound 0.8 µM), with AZD6482 + Foretinib (first compound 2.53 µM) and with AZD6482 + Foretinib (first compound 8 µM) were 1.02, 0.477 and 0.518, respectively.

For NCI-H520, the relative viability in experiment [1] (first compound 0.2 µM) came to 1.21; in experiment [1] (first compound 0.6325 µM) it was 0.89; in experiment [1] (first compound 2 µM), 0.989; in experiment [1] (first compound 6.325 µM), 0.867; in the experiment with AZD6482 + Foretinib (first compound 0.08 µM) it was 0.423; with AZD6482 + Foretinib (first compound 0.253 µM), 0.661. The relative viability is 0.493 with AZD6482 + Foretinib (first compound 0.8 µM), 0.203 with AZD6482 + Foretinib (first compound 2.53 µM) and 0.304 with AZD6482 + Foretinib (first compound 8 µM).

For the cell line RERF-LC-KJ, the relative viability in experiment [1] (first compound 0.2 µM) is 0.94; in experiment [1] (first compound 0.6325 µM), 0.884; in experiment [1] (first compound 2 µM), 0.926; in experiment [1] (first compound 6.325 µM) it was 0.72; with AZD6482 + Foretinib (first compound 0.08 µM) it was 0.791; with AZD6482 + Foretinib (first compound 0.253 µM) it was 0.825. Besides, the relative viability with AZD6482 + Foretinib (first compound 0.8 µM) was 0.822; with AZD6482 + Foretinib (first compound 2.53 µM), 0.781; in the experiment with AZD6482 + Foretinib (first compound 8 µM), 0.7.

In the case of A-427, the relative viability in experiment [1] (first compound 0.2 µM) is 1.04; in experiment [1] (first compound 0.6325 µM) it was 0.966; in experiment [1] (first compound 2 µM) it was 1; in experiment [1] (first compound 6.325 µM), 0.948; with AZD6482 + Foretinib (first compound 0.08 µM), 0.959; with AZD6482 + Foretinib (first compound 0.253 µM), 0.937. The relative viability came to 1.13 in the experiment with AZD6482 + Foretinib (first compound 0.8 µM) and 1.05 in the experiment with AZD6482 + Foretinib (first compound 8 µM).

For the cell line NCI-H441, the relative viability in experiment [1] (first compound 0.2 µM) was found to be 0.591; in experiment [1] (first compound 2 µM) it was 0.831; in experiment [1] (first compound 6.325 µM), 0.277; with AZD6482 + Foretinib (first compound 0.08 µM), 0.852; with AZD6482 + Foretinib (first compound 0.253 µM), 0.806; with AZD6482 + Foretinib (first compound 0.8 µM) it was 1.21. Besides, in the experiment with AZD6482 + Foretinib (first compound 8 µM), the relative viability is 0.87.

For the cell line NCI-H1703, the relative viability in experiment [1] (first compound 0.2 µM) amounted to 1.25; in experiment [1] (first compound 0.6325 µM), 0.92; in experiment [1] (first compound 2 µM), 1.11; in experiment [1] (first compound 6.325 µM) it was 0.41; in the experiment with AZD6482 + Foretinib (first compound 0.08 µM), 0.266; in the experiment with AZD6482 + Foretinib (first compound 0.253 µM), 0.414. Besides, the figures for the relative viability in the experiment with AZD6482 + Foretinib (first compound 0.8 µM), with AZD6482 + Foretinib (first compound 2.53 µM) and with AZD6482 + Foretinib (first compound 8 µM) were 0.322, 0.259 and 0.259, respectively.

For the cell line NCI-H1792, the relative viability in experiment [1] (first compound 0.2 µM) was 0.665; in experiment [1] (first compound 0.6325 µM), 0.639; in experiment [1] (first compound 2 µM), 0.66; in experiment [1] (first compound 6.325 µM), 0.629.

In the case of Calu-6, the relative viability is 0.84 in experiment [1] (first compound 0.2 µM); 0.809 in experiment [1] (first compound 0.6325 µM); 0.763 in experiment [1] (first compound 2 µM); 0.602 in experiment [1] (first compound 6.325 µM); 0.789 with AZD6482 + Foretinib (first compound 0.08 µM); 0.815 with AZD6482 + Foretinib (first compound 0.253 µM). Moreover, the relative viability with AZD6482 + Foretinib (first compound 0.8 µM) stood at 0.9; in the experiment with AZD6482 + Foretinib (first compound 2.53 µM), 0.644; with AZD6482 + Foretinib (first compound 8 µM), 0.765.

SK-LU-1: the relative viability in experiment [1] (first compound 0.2 µM) came to 1.06; in experiment [1] (first compound 0.6325 µM), 1; in experiment [1] (first compound 2 µM) it was 1.2; in experiment [1] (first compound 6.325 µM), 0.461; in the experiment with AZD6482 + Foretinib (first compound 0.253 µM), 0.735; with AZD6482 + Foretinib (first compound 0.8 µM), 0.688. Moreover, the relative viability with AZD6482 + Foretinib (first compound 2.53 µM) was 0.555; with AZD6482 + Foretinib (first compound 8 µM) it was 0.584.

On to PC-3 [JPC-3], for which the relative viability in experiment [1] (first compound 0.2 µM) came to 0.89; in experiment [1] (first compound 0.6325 µM), 0.815; in experiment [1] (first compound 2 µM), 0.775; in experiment [1] (first compound 6.325 µM) it was 0.741; with AZD6482 + Foretinib (first compound 0.08 µM), 0.928; with AZD6482 + Foretinib (first compound 0.253 µM), 1.09. In addition, the relative viability with AZD6482 + Foretinib (first compound 0.8 µM) was 1.09; with AZD6482 + Foretinib (first compound 2.53 µM), 0.877; with AZD6482 + Foretinib (first compound 8 µM), 0.875.
